In PubChem BioAssay AID248 (DTP/NCI, 2004):
Several values for one entry are separate records, joined by “and”; a condition that tells them apart may be missing. Equal entries are not always repeated. Inconclusive results and toxic doses are left out. Cut-off read from the data, not from the text of the source: active = T/C of 150% or more; inactive = T/C below 125%.

System: L1210 leukemia ip in BDF1 mice, survival T/C
Assay: NCI In Vivo Anticancer Drug Screen. Data for tumor model L1210 Leukemia (intraperitoneal) in B6D2F1 (BDF1) mice
Conditions: endpoint: mean survival time, higher = longer survival
Procedure, shortened: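 Read-out is survival time, reported as the treated-group measurement over the vehicle-control measurement.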

[1] = dose: 25.0 mg/kg/injection, schedule: Q01DX009 (ip), vehicle: saline with Tween-80
[2] = dose: 100.0 mg/kg/injection, schedule: Q01DX001 (ip), vehicle: saline
[3] = dose: 100.0 mg/kg/injection, schedule: Q04DX003 (ip), vehicle: saline
[4] = dose: 200.0 mg/kg/injection, schedule: Q01DX001 (ip), vehicle: saline
[5] = dose: 200.0 mg/kg/injection, schedule: Q04DX003 (ip), vehicle: saline
[6] = dose: 400.0 mg/kg/injection, schedule: Q01DX001 (ip), vehicle: saline
[7] = dose: 400.0 mg/kg/injection, schedule: Q04DX003 (ip), vehicle: saline
[8] = dose: 100.0 mg/kg/injection, schedule: Q04DX003 (ip), vehicle: Klucel (hydroxypropylcellulose) (HPC)
[9] = dose: 200.0 mg/kg/injection, schedule: Q04DX003 (ip), vehicle: Klucel (hydroxypropylcellulose) (HPC)
[10] = dose: 400.0 mg/kg/injection, schedule: Q04DX003 (ip), vehicle: Klucel (hydroxypropylcellulose) (HPC)
[11] = dose: 100.0 mg/kg/injection, schedule: Q01DX009 (ip), vehicle: Klucel (hydroxypropylcellulose) (HPC)
[12] = dose: 200.0 mg/kg/injection, schedule: Q01DX009 (ip), vehicle: Klucel (hydroxypropylcellulose) (HPC)
[13] = dose: 100.0 mg/kg/injection, schedule: Q01DX009 (ip), vehicle: saline
[14] = dose: 200.0 mg/kg/injection, schedule: Q01DX009 (ip), vehicle: saline
[15] = dose: 50.0 mg/kg/injection, schedule: Q01DX009 (ip), vehicle: saline with Tween-80

Measured: T/C

CC12CC(C(O)(C(F)(F)F)C(F)(F)F)C(=O)C=C1CCC1C2CCC2(C)C(C(=O)CC(O)(C(F)(F)F)C(F)(F)F)CCC12 (centres undefined)
inactive: dose: 100.0 mg/kg/injection, schedule: Q01DX001 (sc), vehicle: steriod suspending solution 103 % of control | dose: 200.0 mg/kg/injection, schedule: Q01DX001 (sc), vehicle: steriod suspending solution 103 % of control | dose: 400.0 mg/kg/injection, schedule: Q01DX001 (sc), vehicle: steriod suspending solution 101 % of control

CCCCNCCC(=O)c1ccc(Cl)cc1
inactive: dose: 6.25 mg/kg/injection, schedule: Q01DX009 (ip), vehicle: saline with Tween-80 98 % of control | dose: 12.5 mg/kg/injection, schedule: Q01DX009 (ip), vehicle: saline with Tween-80 100 % of control | [1] 94 % of control

CCCNC(=O)c1cc(NC(=O)Nc2ccc(C3=NCCCN3)cc2)cc(NC(=O)Nc2ccc(C3=NCCCN3)cc2)c1
inactive: dose: 21.0 mg/kg/injection, schedule: Q01DX Z (ip), vehicle: carboxymethylcellulose (CMC) 115 % of control | dose: 42.0 mg/kg/injection, schedule: Q01DX Z (ip), vehicle: carboxymethylcellulose (CMC) 113 % of control | dose: 84.0 mg/kg/injection, schedule: Q01DX Z (ip), vehicle: carboxymethylcellulose (CMC) 117 % of control

Cc1cccc(C)c1C1CC1S(=O)(=O)c1ccccc1 (centres undefined)
inactive: [2] 101 % of control | [3] 100 % of control | [4] 98 % of control | [5] 94 % of control | [6] 111 % of control | [7] 104 % of control

Cc1ccc(S(=O)(=O)N(C)c2ccccc2C(=O)O)cc1
inactive: [8] 104 % of control | [9] 97 % of control | [10] 95 % of control

CCCCC(CC)CC1CCCCC1O (centres undefined)
inactive: [11] 95 % of control | [8] 97 % of control | [12] 93 % of control | [9] 96 % of control | [10] 96 % of control

O=C1OC(=O)C2CCC12 (centres undefined)
inactive: dose: 75.0 mg/kg/injection, schedule: Q01DX001 (ip), vehicle: saline 93 % of control | [13] 91 % of control | [3] 98 % of control | dose: 150.0 mg/kg/injection, schedule: Q01DX001 (ip), vehicle: saline 101 % of control | [14] 93 % of control | [5] 101 % of control | dose: 300.0 mg/kg/injection, schedule: Q01DX001 (ip), vehicle: saline 112 % of control | [7] 98 % of control

CCCCCCCCC(O)CCC (centres undefined)
inactive: [13] 102 % of control | [14] 105 % of control | dose: 400.0 mg/kg/injection, schedule: Q01DX009 (ip), vehicle: saline 102 % of control

CCCCCCCCCCCC(c1ccccc1)[N+](C)(C)Cc1ccccc1 (centres undefined)
inactive: dose: 0.25 mg/kg/injection, schedule: Q01DX015 (ip), vehicle: saline 108 % of control | dose: 0.5 mg/kg/injection, schedule: Q01DX015 (ip), vehicle: saline 103 % of control | dose: 1.0 mg/kg/injection, schedule: Q01DX015 (ip), vehicle: saline 115 % of control | dose: 2.0 mg/kg/injection, schedule: Q01DX015 (ip), vehicle: saline 114 % of control | dose: 2.5 mg/kg/injection, schedule: Q01DX001 (ip), vehicle: carboxymethylcellulose (CMC) 93 % of control

CCN1C(=O)CC(SC2CC(=O)N(CC)C2=O)C1=O (centres undefined)
inactive: dose: 100.0 mg/kg/injection, schedule: Q01DX001 (ip), vehicle: carboxymethylcellulose (CMC) 100 % of control | dose: 200.0 mg/kg/injection, schedule: Q01DX001 (ip), vehicle: carboxymethylcellulose (CMC) 94 % of control | dose: 400.0 mg/kg/injection, schedule: Q01DX001 (ip), vehicle: carboxymethylcellulose (CMC) 94 % of control

CCC(=O)OCNC(=O)NCc1ccco1
inactive: dose: 222.0 mg/kg/injection, schedule: Q01DX Z (ip), vehicle: methylcellulose (MC) 103 % of control | dose: 333.0 mg/kg/injection, schedule: Q01DX Z (ip), vehicle: methylcellulose (MC) 105 % of control | dose: 500.0 mg/kg/injection, schedule: Q01DX Z (ip), vehicle: methylcellulose (MC) 94 % of control

COc1ncnc2nc[nH]c12
inactive: dose: 50.0 mg/kg/injection, schedule: Q01DX001 (ip), vehicle: Klucel (hydroxypropylcellulose) (HPC) 97 % of control | dose: 100.0 mg/kg/injection, schedule: Q01DX001 (ip), vehicle: Klucel (hydroxypropylcellulose) (HPC) 103 % of control | [11] 101 % of control | [8] 97 % of control | dose: 200.0 mg/kg/injection, schedule: Q01DX001 (ip), vehicle: Klucel (hydroxypropylcellulose) (HPC) 98 % of control | [12] 102 % of control | [9] 105 % of control | dose: 400.0 mg/kg/injection, schedule: Q01DX001 (ip), vehicle: Klucel (hydroxypropylcellulose) (HPC) 101 % of control | dose: 400.0 mg/kg/injection, schedule: Q01DX009 (ip), vehicle: Klucel (hydroxypropylcellulose) (HPC) 98 % of control | [10] 106 % of control

Cc1ccc2[nH]c3c(C)c4ccncc4c(C)c3c2c1
inactive: dose: 12.5 mg/kg/injection, schedule: Q01DX Z (ip), vehicle: saline 103 % of control | dose: 25.0 mg/kg/injection, schedule: Q01DX Z (ip), vehicle: saline 97 % of control | dose: 50.0 mg/kg/injection, schedule: Q01DX Z (ip), vehicle: saline 111 % of control | dose: 75.0 mg/kg/injection, schedule: Q01DX Z (ip), vehicle: saline 102 % of control | [2] 105 % of control | dose: 100.0 mg/kg/injection, schedule: Q01DX Z (ip), vehicle: saline 97 % of control and 107 % of control | dose: 150.0 mg/kg/injection, schedule: Q01DX Z (ip), vehicle: saline 100 % of control | [4] 98 % of control | dose: 225.0 mg/kg/injection, schedule: Q01DX Z (ip), vehicle: saline 105 % of control | dose: 340.0 mg/kg/injection, schedule: Q01DX Z (ip), vehicle: saline 102 % of control | [6] 100 % of control

Cc1cc(C)c(N(CC(=O)O)S(=O)(=O)c2ccccc2)c(C)c1I
inactive: dose: 75.0 mg/kg/injection, schedule: Q04DX003 (ip), vehicle: Klucel (hydroxypropylcellulose) (HPC) 94 % of control

C=CCC(CO)(c1ccccc1)c1ccccc1
inactive: [15] 97 % of control | dose: 100.0 mg/kg/injection, schedule: Q01DX009 (ip), vehicle: saline with Tween-80 87 % of control | dose: 200.0 mg/kg/injection, schedule: Q01DX009 (ip), vehicle: saline with Tween-80 97 % of control

COc1cc2c(cc1OC)C(CC(C)C)=[N+](C)CC2
inactive: dose: 25.0 mg/kg/injection, schedule: Q04DX002 (ip), vehicle: saline with Tween-80 93 % of control | dose: 50.0 mg/kg/injection, schedule: Q04DX002 (ip), vehicle: saline with Tween-80 93 % of control | dose: 100.0 mg/kg/injection, schedule: Q04DX002 (ip), vehicle: saline with Tween-80 93 % of control

Cc1ccc2ccccc2c1N(CC(=O)O)S(=O)(=O)c1ccccc1
inactive: dose: 100.0 mg/kg/injection, schedule: Q04DX003 (ip), vehicle: saline sonified 93 % of control | dose: 200.0 mg/kg/injection, schedule: Q04DX003 (ip), vehicle: saline sonified 102 % of control | dose: 400.0 mg/kg/injection, schedule: Q04DX003 (ip), vehicle: saline sonified 101 % of control

NNc1cccc(C(F)(F)F)c1
inactive: [1] 94 % of control | dose: 25.0 mg/kg/injection, schedule: Q04DX003 (ip), vehicle: saline with Tween-80 100 % of control | [15] 96 % of control | dose: 50.0 mg/kg/injection, schedule: Q04DX003 (ip), vehicle: saline with Tween-80 95 % of control | dose: 100.0 mg/kg/injection, schedule: Q04DX003 (ip), vehicle: saline with Tween-80 95 % of control and 98 % of control

CCOc1ccc2ccccc2c1
inactive: [2] 102 % of control | [4] 98 % of control | [6] 102 % of control
